Drawing on patent US11542233B2, “Compounds, compositions and methods of use” (Aquinnah Pharmaceuticals, Inc., priority 2016, dated 2023), this text covers IC50 for 49 compounds.

As a reminder, the IC50 is the midpoint of a concentration-inhibition curve.

The assay relates to TDP-43 aggregation in PC12 cells stably expressing GFP-tagged mutant TDP-43 (TDP-43^Q33IK::eGFP). Put plainly: In vitro efficacy assay: inhibition of TDP-43 inclusions, concentration-response, fluorescence microscopy. In kind it is cell-based. The conditions noted are these: Rattus norvegicus, PC-12, PC12 cells, 1 hour pre-treatment, 15 μM sodium arsenite for 23 hours, 10-point dose response curve. The procedure:
Exemplary compounds of the invention were evaluated for efficacy in inhibiting TDP-43 inclusions using a concentration-response assay. Briefly, PC12 cells stably expressing a GFP-tagged mutant form of TDP-43 (TDP-43^Q33IK::eGFP) were pre-treated for 1 hour with exemplary compounds and stressed with 15 μM sodium arsenite for 23 hours to induce TDP-43 aggregation. The inhibitory effect on TDP-43 aggregation was measured using fluorescence microscopy. The ratio of cells with TDP-43 aggregates was calculated based on the total number of cells with detectable GFP expression. In the table, “A” indicates an IC50 of less than 100 nM, “B” indicates an IC50 range from 100 nM to 500 nM; “C” indicates an IC50 range from 500 nM to 2 μM; and “D” indicates an IC50 greater than 2 μM.

SMILES strings stand for the structures.

In the case of `CCN(C(=O)c1cc2cc(F)ccc2[nH]1)[C@H]1CCC[C@@H](NCc2cc3ccccc3o2)C1` [Compound 550], the IC50 is below 100 nM.
Turning to `CCN(C(=O)c1cc2cc(S(C)(=O)=O)ccc2[nH]1)[C@H]1CCC[C@@H](NCc2ccccc2)C1` [Compound 546], the IC50 is 100 to 500 nM.
Under `CCN(C(=O)c1cc2ccccc2[nH]1)[C@H]1CCC[C@@H](NCc2ccc(OC(F)(F)F)cc2)C1` [Compound 429] stands below 100 nM.
In the case of `CCN(C(=O)c1cc2ncccc2[nH]1)[C@H]1CCC[C@@H](N[C@H](c2ccccc2)C(F)(F)F)C1` (single isomer, unassigned) [Compound 416], the IC50 was in the range of 500 to 2000 nM.
Under `CCN(C(=O)c1cc2cc(F)ccc2[nH]1)[C@H]1CCC[C@@H](NCc2oc3ccccc3c2C#N)C1` [Compound 553] stands below 100 nM; under `CCN(C(=O)c1cc2ncccc2[nH]1)[C@H]1CCC[C@@H](Nc2ccccc2)C1` [Compound 501], above 2000 nM; under `C#CCOc1ccc(CN[C@@H]2CCC[C@H](N(CC)C(=O)c3nc4c([N+](=O)[O-])cccc4[nH]3)C2)cc1` [Compound 565], below 100 nM.
Under `CCN(C(=O)c1nc2cc(OC(F)(F)F)ccc2[nH]1)[C@H]1CCC[C@@H](NCc2ccccc2)C1` [Compound 539, N-((1S,3R)-3-(benzylamino)cyclohexyl)-N-ethyl-5-(trifluoromethoxy)-1H-benzo[d]imidazole-2-carboxamide] stands below 100 nM; under `CCN(C(=O)c1nc2cc(F)ccc2[nH]1)[C@H]1CCC[C@@H](NCc2ccc(F)cc2)C1` [Compound 526], below 100 nM.
Turning to `CCN(C(=O)c1nc2ccccc2[nH]1)[C@H]1CCC[C@@H](NCc2ccc3ncoc3c2)C1` [Compound 487, N-((1S,3R)-3-((benzo[d]oxazol-6-ylmethyl)amino)cyclohexyl)-N-ethyl-1H-benzo[d]imidazole-2-carboxamide], the IC50 was below 100 nM.
Under `CCN(C(=O)c1nc2ccccc2[nH]1)[C@H]1CCC[C@@H](NCc2ccc(F)cc2)C1` [Compound 475] stands below 100 nM.
On to `CCN(C(=O)c1cc2ccccc2[nH]1)[C@H]1CCC[C@@H](NCc2cc(C)no2)C1` [Compound 458], for which the IC50 lay in the range of 100 to 500 nM.
As for `C#CCOc1cccc(CN[C@@H]2CCC[C@H](N(CC)C(=O)c3nc4c([N+](=O)[O-])cccc4[nH]3)C2)c1` [Compound 566], the IC50 is below 100 nM.
As to `COc1ccc(C(C)(C)N[C@@H]2CCC[C@H](N(CC(F)(F)F)C(=O)c3cc4ncccc4[nH]3)C2)cc1` [Compound 424, N-((1S,3R)-3-((2-(4-methoxyphenyl)propan-2-yl)amino)cyclohexyl)-N-(2,2,2-trifluoroethyl)-1H-pyrrolo[3,2-b]pyridine-2-carboxamide], the IC50 is below 100 nM.
The value for `CCN(C(=O)c1cc2ccccc2[nH]1)[C@H]1CCC[C@H](N2CCc3ccccc3C2)C1` [Compound 116] was 500 to 2000 nM.
In the case of `CCN(C(=O)c1nc2ccccc2[nH]1)[C@H]1CCC[C@@H](NCc2oc3ccccc3c2C#N)C1` [Compound 497], the IC50 is below 100 nM.
Turning to `CCN(C(=O)c1cc2ccccc2[nH]1)[C@H]1CCC[C@@H](NCc2nc3ccccc3s2)C1` [Compound 451], the IC50 is 100 to 500 nM.
Turning to `CCN(C(=O)c1nc2ccccc2[nH]1)[C@H]1CCC[C@@H](NCc2ccc3nc(C)oc3c2)C1` [Compound 530, N-ethyl-N-((1S,3R)-3-(((2-methylbenzo[d]oxazol-6-yl)methyl)amino)cyclohexyl)-1H-benzo[d]imidazole-2-carboxamide], the IC50 is below 100 nM.
The value for `CCN(C(=O)c1ccccc1)[C@H]1CCC[C@@H](NCc2ccccc2)C1` [Compound 405] was above 2000 nM; that for `CCN(C(=O)c1cc2ccccc2[nH]1)[C@H]1CCC[C@@H](NCc2oc3ccccc3c2C#N)C1` [Compound 496] was below 100 nM.
On to `CCN(C(=O)c1cc2ccccc2[nH]1)[C@H]1CCC[C@@H](Nc2nnc(C)s2)C1` [Compound 500], for which the half-maximal inhibitory concentration (IC50) was above 2000 nM.
Turning to `CCN(C(=O)c1cc2ncccc2[nH]1)[C@H]1CCC[C@@H](NCc2ccc(F)cc2)C1` [Compound 152], the IC50 is below 100 nM.
Turning to `CCN(C(=O)c1cc2ccccc2[nH]1)[C@H]1CCC[C@@H](NCc2ccnc(O)c2)C1` [Compound 452], the 50% inhibitory concentration (IC50) was above 2000 nM.
The value for `CCN(C(=O)c1nc2cc(F)ccc2[nH]1)[C@H]1CCC[C@@H](NCc2cc(C3CC3)on2)C1` [Compound 552, N-((1S,3R)-3-(((5-cyclopropylisoxazol-3-yl)methyl)amino)cyclohexyl)-N-ethyl-5-fluoro-1H-benzo[d]imidazole-2-carboxamide] was below 100 nM; that for `CCN(C(=O)c1cc2ccccc2[nH]1)[C@H]1CCC[C@@H](N[C@H](c2ccccc2)C(F)(F)F)C1` [Compound 414] was 500 to 2000 nM; that for `CCN(C(=O)c1cc2ccccc2[nH]1)[C@H]1CCC[C@@H](NCc2ccc(OC)cc2)C1` [Compound 128] was below 100 nM.
The value for `CCN(C(=O)c1cc2ccccc2[nH]1)[C@H]1CCC[C@@H](NCc2ccc3ocnc3c2)C1` [Compound 459] was below 100 nM; that for `CCN(C(=O)c1nc2ccccc2[nH]1)[C@H]1CCC[C@@H](NCc2cccc(F)c2)C1` [Compound 480] was below 100 nM; that for `CCN(C(=O)c1cc2ncccc2[nH]1)[C@H]1CCC[C@@H](NCc2nccs2)C1` [Compound 446] was 500 to 2000 nM.
On to `CCN(C(=O)c1cc2ccccc2[nH]1)[C@H]1CCC[C@@H](NCc2nnc(C)o2)C1` [Compound 469], for which the IC50 is 100 to 500 nM.
Under `CCN(C(=O)c1cc2cc(F)ccc2[nH]1)[C@H]1CCC[C@@H](NCc2ccccc2)C1` [Compound 547, N-((1S,3R)-3-(benzylamino)cyclohexyl)-N-ethyl-5-fluoro-1H-indole-2-carboxamide] stands below 100 nM.
Consider `O=C(c1cc2ncccc2[nH]1)N(CC(F)(F)F)[C@H]1CCC[C@@H](NCc2ccc(F)cc2)C1` [Compound 423], for which the IC50 is below 100 nM.
Regarding `CCN(C(=O)c1cc2ncccc2[nH]1)[C@H]1CCC[C@@H](NC(C)(C)c2ccc(F)cc2)C1` [Compound 410], the IC50 was below 100 nM.
Under `CCN(C(=O)c1cc2ccccc2[nH]1)[C@H]1CCC[C@@H](NCc2cc(C(C)C)no2)C1` [Compound 471] stands below 100 nM.
Turning to `CCN(C(=O)c1cc2ncccc2[nH]1)[C@H]1CCC[C@@H](NCc2ccc3ncoc3c2)C1` [Compound 441], the IC50 is below 100 nM.
Under `CCN(C(=O)c1cc2cc(F)ccc2[nH]1)[C@H]1CCC[C@@H](NCc2cccc(F)c2)C1` [Compound 549] stands below 100 nM.
Regarding `CCN(C(=O)c1nc2ccccc2[nH]1)[C@H]1CCC[C@@H](NCc2nnc(C3CC3)o2)C1` [Compound 513, N-((1S,3R)-3-(((5-cyclopropyl-1,3,4-oxadiazol-2-yl)methyl)amino)cyclohexyl)-N-ethyl-1H-benzo[d]imidazole-2-carboxamide], the IC50 is 100 to 500 nM.
Under `C#Cc1ccc(C(=O)c2cccc(CN[C@@H]3CCC[C@H](N(CC)C(=O)c4cc5ccccc5[nH]4)C3)c2)cc1` [Compound 312, N-ethyl-N-((1S,3R)-3-((3-(4-ethynylbenzoyl)benzyl)-amino)cyclohexyl)-1H-indole-2-carboxamide] stands 500 to 2000 nM; under `CCN(C(=O)c1nc2cc(S(C)(=O)=O)ccc2[nH]1)[C@H]1CCC[C@@H](NCc2ccccc2)C1` [Compound 540], below 100 nM.
Consider `CCN(C(=O)c1cc2cc(F)ccc2[nH]1)[C@H]1CCC[C@@H](NCc2ccc(F)cc2)C1` [Compound 551], for which the IC50 was below 100 nM.
Regarding `CCN(C(=O)c1ccccn1)[C@H]1CCC[C@@H](NCc2ccccc2)C1` [Compound 404], the IC50 was above 2000 nM.
The value for `CCN(C(=O)c1cc2ccccc2[nH]1)[C@H]1CCC[C@@H](NCc2cccc(N=[N+]=[N-])c2)C1` [Compound 316, N-((1S,3R)-3-((3-azidobenzyl)amino)cyclohexyl)-N-ethyl-1H-indole-2-carboxamide] was below 100 nM.
Under `O=C(c1cc2ccccc2[nH]1)N(CC(F)(F)F)[C@H]1COC[C@@H](NCc2ccccc2)C1` [Compound 302] stands 100 to 500 nM; under `O=C(c1cc2ccccc2[nH]1)N(CC(F)(F)F)[C@H]1COC[C@H](NCc2ccccc2)C1` [Compound 303], above 2000 nM.
Take `CCN(C(=O)c1cc2ncccc2[nH]1)[C@H]1CCC[C@H](NC(C)(C)c2ccccc2)C1` [Compound 411]: the IC50 is below 100 nM.
For the compound `CCN(C(=O)c1cc2ccccc2[nH]1)[C@H]1CCC[C@@H](NCc2cc3cc(F)ccc3o2)C1` [Compound 433], the concentration for half-maximal inhibition (IC50) was below 100 nM.
Turning to `C#CCOc1ccc(CN[C@@H]2CCC[C@H](N(CC)C(=O)c3nc4cc(N=[N+]=[N-])ccc4[nH]3)C2)cc1` [Compound 557, 5-azido-N-ethyl-N-((1S,3R)-3-((4-(prop-2-yn-1-yloxy)benzyl)amino)cyclohexyl)-1H-benzo[d]imidazole-2-carboxamide], the half-inhibitory concentration (IC50) was below 100 nM.
Regarding `CCN(C(=O)c1nc2ccccc2[nH]1)[C@H]1CCC[C@@H](NCc2ccc3cccn3c2)C1` [Compound 514, N-ethyl-N-((1S,3R)-3-((indolizin-6-ylmethyl)amino)cyclohexyl)-1H-benzo[d]imidazole-2-carboxamide], the 50% inhibitory concentration (IC50) was below 100 nM.
For the compound `CCN(C(=O)c1cc2ccccc2[nH]1)[C@H]1CCC[C@@H](NCc2nnc(C3CC3)s2)C1` [Compound 467, N-((1S,3R)-3-(((5-cyclopropyl-1,3,4-thiadiazol-2-yl)methyl)amino)cyclohexyl)-N-ethyl-1H-indole-2-carboxamide], the IC50 was below 100 nM.
